Assay type in all cases: cell-based
For assay [1], the target named is TelJak2 (Homo sapiens, UniProt O60674). Nature of the assay: Cellular growth assay (MTT), BaF3 TEL/JAK2 cells. Particulars: 40 hr incubation, read-out: TelJak2 (inhibition of 50% of cellular growth).
Assay [2] concerns DU145 (Prostate Cancer) cells. Kind of assay: Cellular growth assay (MTT), DU145. As to conditions: Homo sapiens, DU-145, 40 hr incubation, read-out: DU145 (inhibition of 50% of cellular growth). As to the method:
(§1) K562 (Chronic Myeloid Leukemia), PC3 (Prostate Cancer), and DU145 (Prostate Cancer) were obtained from the American Type Culture Collection (ATCC). K562 was grown in RPMI, with 10% FBS with Glutamx added. DU145 cells were cultured in DMED, with 10% FBS and Glutamx and MEM non-essential amino acids added. PC3 cells were grown in F12K medium, with 10% FBS and Glutamx and MEM non-essential amino acids added. All cells were grown at 37° C. in 5% CO2.

For assay [3], the system named is K562 (Chronic Myeloid Leukemia) cells. Kind of assay: Cellular growth assay (MTT), K562. Particulars: Homo sapiens, 40 hr incubation, read-out: K562 (inhibition of 50% of cellular growth). On the procedure: as §1
The target of assay [4] is TelJak3 (Homo sapiens, UniProt P52333). Nature of the assay: Cellular growth assay (MTT), BaF3 TEL/JAK3 cells. Particulars: 40 hr incubation, read-out: TelJak3 (inhibition of 50% of cellular growth).
Sequence of TelJak3 (P52333 with tags, fused parts or gaps): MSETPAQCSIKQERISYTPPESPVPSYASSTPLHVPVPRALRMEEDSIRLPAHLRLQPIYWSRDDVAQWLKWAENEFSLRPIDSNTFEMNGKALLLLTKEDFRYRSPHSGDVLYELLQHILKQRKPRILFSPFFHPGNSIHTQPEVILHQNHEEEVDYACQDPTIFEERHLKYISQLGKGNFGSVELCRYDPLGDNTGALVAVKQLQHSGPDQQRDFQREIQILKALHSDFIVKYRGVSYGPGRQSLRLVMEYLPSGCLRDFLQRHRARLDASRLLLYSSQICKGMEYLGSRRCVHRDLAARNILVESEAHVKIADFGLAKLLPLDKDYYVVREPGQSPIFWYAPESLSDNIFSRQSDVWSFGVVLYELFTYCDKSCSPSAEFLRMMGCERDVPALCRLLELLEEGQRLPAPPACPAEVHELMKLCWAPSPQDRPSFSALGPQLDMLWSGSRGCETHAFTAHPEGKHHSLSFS
The test system of assay [5] is PC3 (Prostate Cancer) cells. Kind of assay: Cellular growth assay (MTT), PC3. Particulars: Homo sapiens, PC-3, 40 hr incubation, read-out: PC3 (inhibition of 50% of cellular growth). As to the method: as §1

Sequence of TelJak2 (O60674 with tags, fused parts or gaps): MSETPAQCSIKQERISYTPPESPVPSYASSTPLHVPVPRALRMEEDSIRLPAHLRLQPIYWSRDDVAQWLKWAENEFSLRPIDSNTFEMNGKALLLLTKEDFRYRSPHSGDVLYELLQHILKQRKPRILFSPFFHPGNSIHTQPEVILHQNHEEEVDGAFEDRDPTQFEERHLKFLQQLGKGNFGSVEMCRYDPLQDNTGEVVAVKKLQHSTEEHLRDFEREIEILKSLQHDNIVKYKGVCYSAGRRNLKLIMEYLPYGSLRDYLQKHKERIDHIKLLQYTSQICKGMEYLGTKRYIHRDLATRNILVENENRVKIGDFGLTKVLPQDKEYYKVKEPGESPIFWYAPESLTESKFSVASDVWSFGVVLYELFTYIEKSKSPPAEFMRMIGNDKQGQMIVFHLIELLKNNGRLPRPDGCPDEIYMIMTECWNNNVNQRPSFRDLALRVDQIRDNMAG

As to `COc1cc(-c2cncc(NC(CC(C)C)c3ccccc3)n2)ccc1O` (centres unmarked), the IC50 in assay [1] was not above 20 µM; in assay [2] it was more than 20 µM; in assay [3] it was not above 20 µM; in assay [4] it was not above 20 µM; in assay [5] it was more than 20 µM.

Regarding `CCCC(Nc1cncc(-c2ccc(O)c(OC)c2)n1)c1ccc(O)cc1` (centres unmarked), the IC50 in assay [1] was not above 20 µM; in assay [2], more than 20 µM; in assay [3] it was more than 20 µM; in assay [4], not above 20 µM; in assay [5], more than 20 µM.

`CCCC(Nc1cncc(-c2ccc(O)c(OC)c2)n1)c1ccc(SC)cc1` (centres unmarked): the IC50 in assay [1] was not above 20 µM; in assay [2], more than 20 µM; in assay [3], not above 20 µM; in assay [4], not above 20 µM; in assay [5], more than 20 µM.

With `CCCC(Nc1cncc(-c2cc(OC)c(OC)c(OC)c2)n1)c1ccccc1` (centres unmarked), the IC50 in assay [1] is not above 20 µM; in assay [2], not above 20 µM; in assay [3] it was not above 20 µM; in assay [4], not above 20 µM; in assay [5] it was more than 20 µM.

In the case of `CCCC(Nc1cncc(-c2cccc(OC)c2)n1)c1ccccc1` (centres unmarked), the IC50 in assay [1] was not above 20 µM; in assay [2] it was more than 20 µM; in assay [3], not above 20 µM; in assay [4] it was not above 20 µM; in assay [5], more than 20 µM.

With `CCCC(Nc1cncc(-c2ccc(O)c(OC)c2)n1)c1cccc(NC(C)=O)c1` (centres unmarked), the IC50 in assay [1] is not above 20 µM; in assay [2], more than 20 µM; in assay [3], not above 20 µM; in assay [4], not above 20 µM; in assay [5], more than 20 µM.

For the molecule `CCCC(Nc1cncc(-c2ccc(O)c(OC)c2)n1)c1cccc(C#N)c1` (centres unmarked), the IC50 in assay [1] is not above 20 µM; in assay [2], more than 20 µM; in assay [3] it was not above 20 µM; in assay [4], not above 20 µM; in assay [5] it was not above 20 µM.

Consider `CCCC(Nc1cncc(-c2ccc(NS(C)(=O)=O)c(OC)c2)n1)c1ccc(F)cc1` (centres unmarked), for which the IC50 in assay [1] is not above 20 µM; in assay [2] it was more than 20 µM; in assay [3] it was not above 20 µM; in assay [4], not above 20 µM; in assay [5] it was not above 20 µM.

Turning to `CCCC(Nc1cncc(-c2ccc3c(c2)OCO3)n1)c1cccnc1` (centres unmarked), the IC50 is not above 20 µM in assay [1]; more than 20 µM in assay [2]; not above 20 µM in assay [3]; not above 20 µM in assay [4]; more than 20 µM in assay [5].

Turning to `CCCC(Nc1cncc(-c2ccc(O)c(OC)c2)n1)c1cccc([C@H](O)OCCOCC)c1` (some centres unmarked), the IC50 in assay [1] was not above 20 µM; in assay [2], more than 20 µM; in assay [3], not above 20 µM; in assay [4], not above 20 µM; in assay [5], more than 20 µM.

Consider `CCCOC(=O)c1cccc(C(CCC)Nc2cncc(-c3ccc(O)c(OC)c3)n2)c1` (centres unmarked), for which the IC50 in assay [1] is not above 20 µM; in assay [2] it was more than 20 µM; in assay [3], not above 20 µM; in assay [4], not above 20 µM; in assay [5], not above 20 µM.

As for `CCCC(Nc1cncc(-c2ccc(O)c(OC)c2)n1)c1cccc(F)c1F` (centres unmarked), the IC50 in assay [1] was not above 20 µM; in assay [2], more than 20 µM; in assay [3], not above 20 µM; in assay [4], not above 20 µM; in assay [5], more than 20 µM.

In the case of `CCCC(Nc1cncc(-c2ccc(O)c(OC)c2)n1)c1ccc(Cl)c(F)c1` (centres unmarked), the IC50 in assay [1] was not above 20 µM; in assay [2] it was more than 20 µM; in assay [3] it was not above 20 µM; in assay [4], not above 20 µM; in assay [5] it was more than 20 µM.

In the case of `CCCC(Nc1cncc(-c2ccc(O)c(OCC)c2)n1)c1cccc(F)c1` (centres unmarked), the IC50 in assay [1] is not above 20 µM; in assay [2], more than 20 µM; in assay [3], not above 20 µM; in assay [4], not above 20 µM; in assay [5], not above 20 µM.

Turning to `CCCC(Nc1cncc(-c2ccc(O)c(OC)c2)n1)c1cccc(OC(F)(F)F)c1` (centres unmarked), the IC50 was not above 20 µM in assay [1]; more than 20 µM in assay [2]; not above 20 µM in assay [3]; not above 20 µM in assay [4]; more than 20 µM in assay [5].

Take `CCCC(Nc1nc(-c2ccc(O)c(OC)c2)cnc1N)c1cccc(F)c1` (centres unmarked): the IC50 in assay [1] was not above 20 µM; in assay [2], more than 20 µM; in assay [3] it was not above 20 µM; in assay [4], not above 20 µM; in assay [5], more than 20 µM.

As to `CCCC(Nc1cncc(-c2ccc(O)c(OC)c2)n1)c1cc(F)ccc1F` (centres unmarked), the IC50 in assay [1] was not above 20 µM; in assay [2], more than 20 µM; in assay [3], not above 20 µM; in assay [4] it was not above 20 µM; in assay [5] it was more than 20 µM.

As for `CCCC(Nc1cncc(-c2ccc(O)c(OC)c2)n1)c1cccc(C(=O)NC)c1` (centres unmarked), the IC50 in assay [1] was not above 20 µM; in assay [2], more than 20 µM; in assay [3], not above 20 µM; in assay [4], not above 20 µM; in assay [5], more than 20 µM.

Consider `CCCC(Nc1cncc(-c2ccc(O)c(OC)c2)n1)c1cccc(C(=O)NC(C)C2CC2)c1` (centres unmarked), for which the IC50 in assay [1] was not above 20 µM; in assay [2], more than 20 µM; in assay [3], not above 20 µM; in assay [4], not above 20 µM; in assay [5], more than 20 µM.

For `CCCC(Nc1cncc(-c2ccc(O)c(OC)c2)n1)c1cccc(C(=O)NCCN(C)C)c1` (centres unmarked), the IC50 was not above 20 µM in assay [1]; more than 20 µM in assay [2]; not above 20 µM in assay [3]; not above 20 µM in assay [4]; not above 20 µM in assay [5].

On to `CCCC(Nc1cncc(-c2ccc(O)c(OC)c2)n1)c1cccc(C(=O)NCc2cccnc2)c1` (centres unmarked), for which the IC50 was not above 20 µM in assay [1]; more than 20 µM in assay [2]; not above 20 µM in assay [3]; not above 20 µM in assay [4]; more than 20 µM in assay [5].

`CCCC(Nc1cncc(-c2ccc(O)c(OC)c2)n1)c1ccncc1` (centres unmarked): the IC50 in assay [1] is not above 20 µM; in assay [2], more than 20 µM; in assay [3] it was not above 20 µM; in assay [4], not above 20 µM.

Regarding `CCCC(Nc1cncc(-c2ccc(O)c(OCC)c2)n1)c1cncc(C)c1` (centres unmarked), the IC50 was not above 20 µM in assay [1]; more than 20 µM in assay [2]; not above 20 µM in assay [3]; not above 20 µM in assay [4]; not above 20 µM in assay [5].

For the molecule `CCCC(Nc1cncc(-c2ccc(NC(C)=O)c(OC)c2)n1)c1cncc(C)c1` (centres unmarked), the IC50 in assay [1] was not above 20 µM; in assay [2], not above 20 µM; in assay [3] it was not above 20 µM; in assay [4], not above 20 µM; in assay [5] it was more than 20 µM.

As for `CCCC(Nc1cncc(-c2ccc(O)c(OCC)c2)n1)c1cccnc1` (centres unmarked), the IC50 was not above 20 µM in assay [1]; more than 20 µM in assay [2]; not above 20 µM in assay [3]; not above 20 µM in assay [4]; not above 20 µM in assay [5].

As for `COc1cc(-c2cncc(NC(CCC3OCCO3)c3cccc(Cl)c3)n2)ccc1O` (centres unmarked), the IC50 in assay [1] is not above 20 µM; in assay [2], more than 20 µM; in assay [3], not above 20 µM; in assay [4], not above 20 µM; in assay [5], more than 20 µM.

As to `CCCC(Nc1cncc(-c2cc(OC)c(O)c(OC)c2)n1)c1ccccc1` (centres unmarked), the IC50 in assay [1] was not above 20 µM; in assay [2] it was more than 20 µM; in assay [3], more than 20 µM; in assay [4], not above 20 µM; in assay [5], more than 20 µM.

As for `CCCC(Nc1cncc(-c2ccc(NC(C)=O)c(OC)c2)n1)c1cccnc1` (centres unmarked), the IC50 was not above 20 µM in assay [1]; more than 20 µM in assay [2]; not above 20 µM in assay [3]; not above 20 µM in assay [4]; not above 20 µM in assay [5].

Turning to `CCCC(Nc1cncc(-c2ccc(N)c(OC)c2)n1)c1ccccc1` (centres unmarked), the IC50 was not above 20 µM in assay [1]; more than 20 µM in assay [2]; not above 20 µM in assay [3]; not above 20 µM in assay [4]; more than 20 µM in assay [5].

As for `CCCC(=O)Nc1ccc(-c2cncc(NC(CCC)c3cccnc3)n2)cc1OC` (centres unmarked), the IC50 in assay [1], in assay [3], in assay [4] and in assay [5] was not above 20 µM throughout.

Regarding `CCC[C@H](Nc1cncc(-c2ccc(NC(C)=O)c(OC)c2)n1)c1ccccc1`, the results for the IC50 in assay [1], in assay [4] and in assay [5] were not above 20 µM, not above 20 µM and more than 20 µM, respectively.

In the case of `CCN(CC)CCCC(Nc1cncc(-c2ccc(O)c(OC)c2)n1)c1ccccc1` (centres unmarked), the IC50 in assay [1] is not above 20 µM; in assay [2], more than 20 µM; in assay [3], more than 20 µM; in assay [4], not above 20 µM; in assay [5], more than 20 µM.

For the molecule `CCN(CC)CCCCC(Nc1cncc(-c2ccc(O)c(OC)c2)n1)c1ccccc1` (centres unmarked), the IC50 in assay [1] is not above 20 µM; in assay [2], not above 20 µM; in assay [3], more than 20 µM; in assay [4], not above 20 µM; in assay [5], more than 20 µM.

Consider `COc1cc(-c2cncc(NC(CCCCN3CCOCC3)c3ccccc3)n2)ccc1O` (centres unmarked), for which the IC50 in assay [1] is not above 20 µM; in assay [2], more than 20 µM; in assay [3] it was more than 20 µM; in assay [4] it was not above 20 µM; in assay [5], more than 20 µM.

Turning to `CCC[C@H](Nc1cncc(-c2ccc(NCC)c(OC)c2)n1)c1ccccc1`, the IC50 in assay [1] was not above 20 µM; in assay [2], more than 20 µM; in assay [3], not above 20 µM; in assay [4] it was not above 20 µM; in assay [5], not above 20 µM.

`COc1cc(-c2cncc(NC(C)c3ccccn3)n2)ccc1O` (centres unmarked): the IC50 in assay [1] was not above 20 µM; in assay [2], more than 20 µM; in assay [3], more than 20 µM; in assay [4] it was not above 20 µM; in assay [5] it was more than 20 µM.

For the origin of these results see patent US8084456B2, “Pyrazine-based tubulin inhibitors” (YM Biosciences Australia Pty Ltd, priority 2002, dated 2011).
